Experimental data as given in patent US4482548A, “Analgesic pharmaceutical compositions containing 5-phenyl-1,4-benzo diazepine compounds and a method of using same” (Kali-Chemie Pharma GmbH, priority 1982, dated 1984).

Columns and labels:
[1] = Inhibition of the locomotion exploratory activity according to Janssen (suppression of the locomotor exploration activity on rats); design: species or system male rats of the Sprague-Dawley type; settings: rat, in vivo, po, 1 h before test; dosage corresponding to 9 points for six pairs of rats
Source text: (§1) Such tests, for instance, compare the pain allaying effect of the test compound in the arthritis pain test with the sedative and muscle relaxing effects which impair the normal activity of rats.
2. Determination of the inhibition of the locomotion exploratory activity according to the method described by Janssen in "Psychopharmakologie", vol. 1 (1961), pages 141-146.
The compound to be tested is orally administered in the form of a suspension in 2% Tylose solution to male rats of the Sprague-Dawley type one hour before starting the test. Six pairs of rats are used for each dosage to be administered. Each pair of rats is then placed into an environment which is entirely unknown to them. The locomotor activity of said rats with respect to the exploration and inquisitiveness phase within the first thirty seconds is observed and recorded by two observers. The observed activity is evaluated according to a point system. According to said system the highest possible number of points for six pairs of rats amounts to 18 points. That dosage which corresponds to 9 points for six pairs of rats is designated as ED50.

arthritis pain in rats = experiment: Arthritis pain test on rats (suppression of the arthritis pain in rats); format: in vivo, male rats of the OFA strain; settings: Rattus norvegicus, po, 3 h after administration; dosage protecting 50% of the treated animals against pain
Procedure: as §1
1. Arthritis pain test on rats.
Male rats of the OFA strain, weighing between 160 g. and 180 g. are anesthetized by intraperitoneal administration of 20 mg./kg. of Pentobarbital Sodium. 0.1 ml. of a suspension of 0.6 mg. of Mycobacterium Smegmae (SI043) in paraffin oil are injected intracutaneously into the left hind paw of the rats. Fourteen days thereafter, when a pronounced secondary arthritis has developed especially in the right hind paw of the rats, the effects of the test compounds are investigated. For this purpose a control measurement is carried out thirty minutes before administration of the compound to be tested by deflecting three times the ankle joints of the right hind paws of the test animals and counting the number of distress sounds emitted by them. […] The ankle joint deflecting procedure is repeated three hours after oral administration of the compounds to be tested. Animals which emit distress sounds either only once or not at all are considered as being protected against pain. The dosage by which protection against pain is achieved in 50% of the treated animals is designated as the effective dosage ED50.

Acute toxicity on mice = settings: mouse, in vivo, po, read-out: Acute toxicity on mice ED50

For CN1C(=O)CN=C(c2ccccc2)c2cc(Cl)ccc21 [Diazepam, 7-chloro-1-methyl-5-phenyl-1,3-dihydro-2H-1,4-benzo diazepin-2-one, reference compound], the ED50 at 1 h [1] was 11.5 mg/kg and the ED50 (arthritis pain in rats) was 6.2 mg/kg.

For COCC1CN=C(c2ccccc2Cl)c2cc(Br)ccc2N1C (centres unmarked) [compound 1, 1-methyl-7-bromo-2-methoxy methyl-5-(2-chlorophenyl)-1H-2,3-dihydro-1,4-benzo diazepine], the LD50 (Acute toxicity on mice) was 2390 mg/kg, the ED50 at 1 h [1] was 56.2 mg/kg and the ED50 (arthritis pain in rats) was 4.8 mg/kg.

For COCC1CN=C(c2ccccc2Cl)c2cc(Cl)ccc2N1C (centres unmarked) [compound 2, 1-methyl-7-chloro-2-methoxy methyl-5-(2-chlorophenyl)-1H-2,3-dihydro-1,4-benzo diazepine], the LD50 (Acute toxicity on mice) was 1470 mg/kg, the ED50 at 1 h [1] was 55.5 mg/kg and the ED50 (arthritis pain in rats) was 10 mg/kg.
